Drawing on US7378446B2, “Compound having anti-HCV activity and process for producing the same” (Chugai Seiyaku Kabushiki Kaisha, priority 2003, dated 2008), this text covers IC50 and CC50 for 25 compounds.

Structures are written as SMILES.

In data set [1] the test system is Firefly luciferase HCV replicon cells (3-1). In words: Replicon assay (firefly luciferase HCV replicon). The format is cell-based. Particulars: Hepatitis C virus, 72 h; Huh7-derived luciferase HCV replicon cells, 3 days culture with compound, Steady-Glo luminescence. As to the method:
(§1) A construct was prepared in which a luciferase gene derived from firefly was introduced as a reporter gene in HCV-RNA to assay the number of copies of HCV-RNA. The luciferase gene was introduced in the form of fusing with neomycin-resistance gene directly below the IRES (Internal Ribosome Entry Site) of the HCV gene in accordance with the method of Krieger, et al. (J. Virol. 75:4614). After synthesizing this RNA in vitro, it was introduced into Huh7 cell by electroporation and isolated as G418-resistant clone. Firefly luciferase HCV replicon cells (3-1) were suspended in Dulbecco's MEM (Gibco cat. no. 10569-010) containing 5% fetal bovine serum (Hyclone cat. no. SH30071.03), inoculated into the wells of a 96-well plate at 5000 cells/well and then cultured overnight at 37° C. and 5% CO2. Approximately 20 hours later, the diluted test compound was added at 10 μl per well followed by culturing for another 3 days. Two series of assay plates were prepared, and the assay was carried out using a white plate for one series and a clear plate for the other series. Following completion of culturing, the white plate was used for the Steady-Glo Luciferase Assay System (Promega cat. no. E2520). Namely, after adding 100 μl of reagent per well, mixing by a pipette 3 to 4 times and then allowing to stand for 5 minutes, luminescence was measured with the 1450 MicroBeta TRILUX (Wallac). Values obtained in the absence of cell addition were used as background values and subtracted from all values to calculate the IC50 (50% inhibitory concentration) of the drug based on a value of 0% inhibition for the value in the absence of addition of test compound.

A short description of a further data set: in vitro. The format is cell-based. To be noted: human; replicon cells, 3 days culture with compound, Cell Counting Kit 8, absorbance 450 nm; read-out: Cytotoxicity CC50. Here is the method: as §1
The Cell Counting Kit 8 (Dojindo cat. no. CK04) was used to determine the cytotoxicity. Namely, 10 μl of Cell Counting Kit 8 were added to a clear plate and incubated for 30 to 60 minutes at 37° C. Absorbance at a wavelength of 450 nm and a control wavelength of 630 nm was measured with a 96-well plate reader. Values in the absence of cell addition were used as background values and subtracted from all values to calculate the CC50 (50% cell inhibitory concentration) of the drug based on a value of 0% inhibition for the value in the absence of addition of drug.

`CCCCCCCC(=O)CCCCCC/C=C/[C@H](C(=O)N[C@@H](Cc1ccc(OCCN2CCNCC2)cc1)C(=O)O)[C@@](O)(CC(=O)O)C(=O)O` [Compound 87]: the 50% inhibitory concentration (IC50) in data set [1] came out at 0.038 µM. The CC50 in “in vitro” is more than 1 µM.
On to `CCCCCCCC(=O)CCCCCC/C=C/[C@H](C(=O)N[C@@H](Cc1ccc(OCCCNCc2cccnc2)cc1)C(=O)O)[C@@](O)(CC(=O)O)C(=O)O` [Compound 88], for which the IC50 in data set [1] is 0.018 µM. Besides, the CC50 in “in vitro” is more than 1 µM.
For `CCCCCCCC(=O)CCCCCC/C=C/[C@H](C(=O)N[C@@H](Cc1ccc(OCCCN2CCN(C)CC2)cc1)C(=O)O)[C@@](O)(CC(=O)O)C(=O)O` [Compound 89] the same measures were 0.029 µM and more than 1 µM.
For `CCCCCCCC(=O)CCCCCC/C=C/[C@H](C(=O)N[C@@H](Cc1ccc(N=[N+]=[N-])cc1)C(=O)O)[C@@](O)(CC(=O)O)C(=O)O` [Compound 90] the same measures were 0.006 µM and more than 1 µM.
For `CCCCCCCC(=O)CCCCCC/C=C/[C@H](C(=O)N[C@@H](Cc1ccc(CNC(=O)OCC2c3ccccc3-c3ccccc32)cc1)C(=O)O)[C@@](O)(CC(=O)O)C(=O)O` [Compound 91], in that order: 0.008 µM and more than 1 µM.
Take `CCCCCCCC(=O)CCCCCC/C=C/[C@H](C(=O)N[C@@H](Cc1ccc(NS(C)(=O)=O)cc1)C(=O)O)[C@@](O)(CC(=O)O)C(=O)O` [Compound 92]: in data set [1], the IC50 came to 0.002 µM. Moreover, in the data set “in vitro”, the CC50 is more than 1 µM.
For `CCCCCCCC(=O)CCCCCC/C=C/[C@H](C(=O)N[C@@H](Cc1ccc(NC(C)=O)cc1)C(=O)O)[C@@](O)(CC(=O)O)C(=O)O` [Compound 93], in that order: 0.012 µM and more than 1 µM.
For `CCCCCCCC(=O)CCCCCC/C=C/[C@H](C(=O)N[C@@H](Cc1ccc(CN)cc1)C(=O)O)[C@@](O)(CC(=O)O)C(=O)O` [Compound 94] the same measures were 0.28 µM and more than 1 µM.
For `CCCCCCCC(=O)CCCCCC/C=C/[C@H](C(=O)N[C@@H](Cc1ccc(NC(=N)N)cc1)C(=O)O)[C@@](O)(CC(=O)O)C(=O)O` [Compound 95] the same measures were 0.395 µM and more than 1 µM.
Take `CCCCCCCC(=O)CCCCCC/C=C/[C@H](C(=O)N[C@@H](Cc1ccc(-n2cc(C(=O)OCC)nn2)cc1)C(=O)O)[C@@](O)(CC(=O)O)C(=O)O` [Compound 96]: the IC50 in data set [1] is 0.009 µM. For the same compound, the CC50 in “in vitro” is more than 1 µM.
For `CCCCCCCC(=O)CCCCCC/C=C/[C@H](C(=O)N[C@@H](Cc1cccnc1)C(=O)O)[C@@](O)(CC(=O)O)C(=O)O` [Compound 97] the same measures were 0.302 µM and more than 1 µM.
For `CC(C)CCOc1ccc(C[C@H](NC(=O)[C@@H](/C=C/CCCCCCC(=O)CCCCCCF)[C@@](O)(CC(=O)O)C(=O)O)C(=O)O)cc1` [Compound 98] the same measures were 0.021 µM and more than 1 µM.
For `COCCCCCCC(=O)CCCCCC/C=C/[C@H](C(=O)N[C@@H](Cc1ccc(OCCC(C)C)cc1)C(=O)O)[C@@](O)(CC(=O)O)C(=O)O` [Compound 99] the same measures were 0.056 µM and more than 1 µM.
For `CCCCCCCCCC(=O)CCCC/C=C/[C@H](C(=O)N[C@@H](Cc1ccc(-c2ccccc2)cc1)C(=O)O)[C@@](O)(CC(=O)O)C(=O)O` [Compound 100], the IC50 in data set [1] turned out to be 0.092 µM. Further, the cytotoxic concentration (CC50) in the data set “in vitro” is more than 1 µM.
As to `CCCCCCCCCC(=O)CCCC/C=C/[C@H](C(=O)N[C@@H](Cc1ccc(Oc2ccccc2)cc1)C(=O)O)[C@@](O)(CC(=O)O)C(=O)O` [Compound 101], the IC50 in data set [1] is 0.046 µM. Besides, the CC50 in “in vitro” is more than 1 µM.
Consider `CCCCCCC(=O)CCCCCC/C=C/[C@H](C(=O)N[C@@H](Cc1ccc(-c2ccccc2)cc1)C(=O)O)[C@@](O)(CC(=O)O)C(=O)O` [Compound 102], for which, in data set [1], the IC50 came to 0.005 µM. In addition, the CC50 in “in vitro” is more than 1 µM.
For `CCCCCCC(=O)CCCCCC/C=C/[C@H](C(=O)N[C@@H](Cc1ccc(Oc2ccccc2)cc1)C(=O)O)[C@@](O)(CC(=O)O)C(=O)O` [Compound 103] the same measures were 0.011 µM and more than 1 µM.
For `CCCC#CCOc1ccc(C[C@H](NC(=O)[C@@H](/C=C/CCCCCCC(=O)CCCCCCC)[C@@](O)(CC(=O)O)C(=O)O)C(=O)O)cc1` [Compound 104] the same measures were 0.001 µM and more than 1 µM.
For `C#CCOc1ccc(C[C@H](NC(=O)[C@@H](/C=C/CCCCCCC(=O)CCCCCCC)[C@@](O)(CC(=O)O)C(=O)O)C(=O)O)cc1` [Compound 105], in that order: 0.003 µM and more than 1 µM.
In the case of `C#CCCCOc1ccc(C[C@H](NC(=O)[C@@H](/C=C/CCCCCCC(=O)CCCCCCC)[C@@](O)(CC(=O)O)C(=O)O)C(=O)O)cc1` [Compound 106], the IC50 in data set [1] was 0.001 µM. Besides, in the data set “in vitro”, the half-maximal cytotoxic concentration (CC50) was more than 1 µM.
For `CC#CCCOc1ccc(C[C@H](NC(=O)[C@@H](/C=C/CCCCCCC(=O)CCCCCCC)[C@@](O)(CC(=O)O)C(=O)O)C(=O)O)cc1` [Compound 107] the same measures were 0.001 µM and more than 1 µM.
Regarding `CCCCCCCC(=O)CCCCCC/C=C/[C@H](C(=O)N[C@@H](Cc1ccc(OCC#CCN(CC)CC)cc1)C(=O)O)[C@@](O)(CC(=O)O)C(=O)O` [Compound 108], in data set [1], the half-inhibitory concentration (IC50) worked out at 0.003 µM. The CC50 in the data set “in vitro” was more than 1 µM.
With `CCC#CCOc1ccc(C[C@H](NC(=O)[C@@H](/C=C/CCCCCCC(=O)CCCCCCC)[C@@](O)(CC(=O)O)C(=O)O)C(=O)O)cc1` [Compound 109], the IC50 in data set [1] is 0.002 µM. For the same compound, the CC50 in the data set “in vitro” was more than 1 µM.
For `CCCCCCCC#CCOc1ccc(C[C@H](NC(=O)[C@@H](/C=C/CCCCCCC(=O)CCCCCCC)[C@@](O)(CC(=O)O)C(=O)O)C(=O)O)cc1` [Compound 110], in that order: 0.005 µM and more than 1 µM.
For `CCCCCCCC(=O)CCCCCC/C=C/[C@H](C(=O)N[C@@H](Cc1ccc(OCC#CC#CC(C)(C)C)cc1)C(=O)O)[C@@](O)(CC(=O)O)C(=O)O` [Compound 111], in that order: 0.006 µM and more than 1 µM.
